2 molecules from patent US11344507B2, “Topical compositions containing low molecular weight chitosan derivatives” (ALUMEND, LLC, priority 2019, dated 2022) can be followed below.

Data set [1] has as its system IL-1α secretion by three-dimensional human epidermal equivalents (EPI-200). As to conditions: 24 h. As to the method: Test materials (30 μl) were topically applied onto three-dimensional human epidermal equivalents (EPI-200 from MatTek, Ashland, Mass.), n=3 tissues per treatment group.
The test system is the same in data set [2].
Data set [3] deals with three-dimensional human epidermal equivalents (EPI-200). Nature of the data set: In vitro Skin Irritation Test, SDS-induced irritation: MTT tissue viability. As to conditions: for Mean of viability (%): MTT after 42 hr post-exposure.

With `CC1=C(/C=C/C(C)=C/C=C/C(C)=C/CO)C(C)(C)CCC1` [Retinol, retinol], the “IL-1α (pg/mL) = Average IL1α (pg/mL) treated tissue minus Average IL1α (pg/mL) negative control” value in data set [1] came out at 98.301 pg/mL.
As for `CCCCCCCCCCCCOS(=O)(=O)[O-].[Na+]` [SDS, sodium dodecyl sulfate], the “irritant classification by IL-1α results” value in data set [2] is reported as “irritant”. Also, the “Mean of viability (%)” value in data set [3] (0.2% SDS, alone or applied after dried 1% OsC) is 74.75%; in data set [3] (0.4% SDS, alone or applied after dried 1% OsC), 73.04%; in data set [3] (0.6% SDS, alone or applied after dried 1% OsC), 19.21%; in data set [3] (test agent alone (OsC 1%; PC = 5% SDS)) it was 3.12%. Moreover, the “irritant classification by MTT assay (cut-off 50% viability)” value in data set [3] (0.6% SDS, alone or combined with OsC) is “irritant”.
